From US20230257385A1, “SALT AND SOLID FORMS OF TABERNANTHALOG” (priority 2021, published 2023)
“Also recorded” adds a separate entry of the source. Where a name gives a salt, the structure may show the parent alone.

Tests used:
[1] = DVS analyses of sorbate salt Form A / Form C (Example 10); assay type: physicochemical
Description: DVS analyses of Form A (Performed on batch reference: Experiment 11-Sample -A1) To determine whether Form A underwent form change at high % RH, DVS residues of Form A, from 0 to 80% RH and 0 to 90% RH, were examined. The specimens were equilibrated to constant mass, at 80% and 90% RH set-points, removed, placed in a capped vial, and analysed by XRPD and DSC. Based on the SC-XRD at 100 K, no regular voids in the crystal structure were large enough to accommodate non-crystal-bonded, molecular water with minimum probe radius of 1.4 Å.
The moisture sorption properties of the feed API were analysed by DVS Intrinsic instrument (Surface Measurement System). Approximately 20 to 50 mg of API was weighed onto an aluminium pan and loaded into the instrument equilibrated at 25° C. The sample was equilibrated under a dry atmosphere (0% relative humidity) for 60 minutes, before increasing the humidity from 0% to 30% at 5% step increment and from 30% to 90% at 10% step increment. A desorption cycle was also applied from 90% to 30% (10% step decrement) and from 30% to 0% (5% step decrement). A rate of change in mass per time unit (dm/dt) of 0.002%/min was set as the equilibrium parameter. Kinetic and isotherm graphs were calculated.
5. DVS Analyses: 0% to 90% DVS Mass Per Unit Time Equilibrated at Dm/Dt (0.0002%/Min)

[2] = Examination of variability of fusion temperature of sorbate Form A (DSC); assay type: physicochemical; conditions: listed as Experiment 13-Sample C1
Method: The factors that were assessed to explain the observed variability in fusion temperature found amongst Form A samples were sample loading, preferred orientation and particle size/homogeneity (Table 271). A weak relationship between sample loading and melt onset was observed, the remainder of the factors examined, appeared to be unrelated.
DSC data were collected from 25 to 220C at a scan rate of at 10° C. min^−1 (Table 292).

[3] = Solubility determinations in SIF buffers FaSSIF, FeSSIF, FaSSGF (Example 8, Experiment 5); conditions: for solubility at 24 h: 37 °C, thermodynamic from solid; for fate of the suspended phase in FaSSGF (XRPD, 1H NMR): up to 24 h
In short: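 Suspensions in FaSSIF, FeSSIF or FaSSGF held at 37° C for 24 h, sampled at set time points and centrifuged. Pellets checked by XRPD, wet and dried, for form change.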

[4] = DSC 25-220° C. at 10° C. min^−1, batches of sorbate salt Form A
[5] = DSC 25 to 220C at 10° C. min−1, tabernanthalog sorbate Form A samples

COc1ccc2c3c([nH]c2c1)CCN(C)CC3 [tabernanthalog sorbate salt]
DVS isotherm ([1]; 0% to 90% DVS, mass per unit time equilibrated at dm/dt (0.0002%/min)): slightly hygroscopic up to 80% RH | DVS 0 to 90 to 0% RH (dm/dt <0.002%) ([1]; RH 0.0, falling leg (90 to 0)): 0.0 (0.06%) | DVS 0 to 90 to 0% RH (dm/dt <0.002%) ([1]; RH 0.0, rising leg (0 to 90)): DVS 0 to 90 to 0% RH (dm/dt <0.002%): 0.0 (0.00%), | DVS 0 to 90 to 0% RH (dm/dt <0.002%) ([1]; RH 5.0, falling leg (90 to 0)): 0.05% | DVS 0 to 90 to 0% RH (dm/dt <0.002%) ([1]; RH 5.0, rising leg (0 to 90)): 0.0% | DVS 0 to 90 to 0% RH (dm/dt <0.002%) ([1]; RH 10.0, falling leg (90 to 0)): 0.04% | DVS 0 to 90 to 0% RH (dm/dt <0.002%) ([1]; RH 10.0, rising leg (0 to 90)): 0.01% | DVS 0 to 90 to 0% RH (dm/dt <0.002%) ([1]; RH 15.0, falling leg (90 to 0)): 0.03% | DVS 0 to 90 to 0% RH (dm/dt <0.002%) ([1]; RH 15.0, rising leg (0 to 90)): 0.01% | DVS 0 to 90 to 0% RH (dm/dt <0.002%) ([1]; RH 20.0, falling leg (90 to 0)): 0.02% | DVS 0 to 90 to 0% RH (dm/dt <0.002%) ([1]; RH 20.0, rising leg (0 to 90)): 0.02% | DVS 0 to 90 to 0% RH (dm/dt <0.002%) ([1]; RH 25.0, falling leg (90 to 0)): 0.00% | DVS 0 to 90 to 0% RH (dm/dt <0.002%) ([1]; RH 25.0, rising leg (0 to 90)): 0.03% | DVS 0 to 90 to 0% RH (dm/dt <0.002%) ([1]; RH 30.0, falling leg (90 to 0)): 0.00% | DVS 0 to 90 to 0% RH (dm/dt <0.002%) ([1]; RH 30.0, rising leg (0 to 90)): 0.03% | DVS 0 to 90 to 0% RH (dm/dt <0.002%) ([1]; RH 40.0, falling leg (90 to 0)): 0.03% | DVS 0 to 90 to 0% RH (dm/dt <0.002%) ([1]; RH 40.0, rising leg (0 to 90)): 0.05% | DVS 0 to 90 to 0% RH (dm/dt <0.002%) ([1]; RH 50.0, falling leg (90 to 0)): 0.06% | DVS 0 to 90 to 0% RH (dm/dt <0.002%) ([1]; RH 50.0, rising leg (0 to 90)): 0.07% | DVS 0 to 90 to 0% RH (dm/dt <0.002%) ([1]; RH 60.0, falling leg (90 to 0)): 0.18% | DVS 0 to 90 to 0% RH (dm/dt <0.002%) ([1]; RH 60.0, rising leg (0 to 90)): 0.10% | DVS 0 to 90 to 0% RH (dm/dt <0.002%) ([1]; RH 70.0, falling leg (90 to 0)): 0.30% | DVS 0 to 90 to 0% RH (dm/dt <0.002%) ([1]; RH 70.0, rising leg (0 to 90)): 0.14% | DVS 0 to 90 to 0% RH (dm/dt <0.002%) ([1]; RH 80.0, falling leg (90 to 0)): 0.48% | DVS 0 to 90 to 0% RH (dm/dt <0.002%) ([1]; RH 80.0, rising leg (0 to 90)): 0.21% | DVS 0 to 90 to 0% RH (dm/dt <0.002%) ([1]; RH 90.0, falling leg (90 to 0)): 0.98% | DVS 0 to 90 to 0% RH (dm/dt <0.002%) ([1]; RH 90.0, rising leg (0 to 90)): 0.98% | form of specimens retrieved post DVS (XRPD) ([1]; at 0%, 80% and 90% RH): consistent with Form A | water affinity ([1]; up to 90% RH (DVS)): ca. 1 % w/w | Endset [2, 4]: 144.5 °C | melt enthalpy [2, 4]: −105.8 Jg^−1 | melt onset [2, 4]: 139.9 °C | peak [2, 4]: 142.5 °C | melt enthalpy [2, 5]: −105.78 Jg-1 | melt onset [2, 5]: 139.87 °C | Endset ([2]; DSC melt endset, 25 to 220C at 10° C. min−1, tabernanthalog sorbate Form A samples): 144.46 °C | peak ([2]; DSC melt peak, 25 to 220C at 10° C. min−1, tabernanthalog sorbate Form A samples): 142.50 °C | Solubility in SIF buffers: FeSSIF ([3]; 37° C. up to 1 h): Insoluble | Solubility in SIF buffers: FaSSGF ([3]; 37° C. up to 24 h): Insoluble | solubility at 24 h ([3]; pH 5, fessif): > 30 mg/mL | solubility at 24 h ([3]; pH 6.5, fassif): > 30 mg/mL | solubility in the SIF buffers (in words) ([3]; FaSSIF, FeSSIF, FaSSGF): highly soluble in the SIF buffers examined; also recorded: highly soluble in the SIF buffers used, apart from FaSSGF | behaviour at 30 mg/ml in SIF buffers ([3]; FaSSIF, FeSSIF, FaSSGF, 37° C., 24 h): only remained suspended in FaSSGF | solubility in the SIF buffers (in words) ([3]; FaSSIF, FeSSIF, FaSSGF, listed as Tabernanthalog sorbate salt (Form A)): readily soluble in FaSSIF and FeSSIF during 24 h | Tabernanthalog RRT = 1.00 (trended HPLC data, chemical purity) ([3]; tabernanthalog sorbate salt, input before FaSSGF): 99.41 | fate of the suspended phase in FaSSGF (XRPD, 1H NMR) ([3]; 37° C.): supported disproportionation | fate of the suspended phase in FaSSGF (XRPD, 1H NMR) ([3]; 37° C., listed as Tabernanthalog sorbate salt (Form A)): only exhibited disproportionation after 24 h in FaSSGF
